Test results: ChEMBL document CHEMBL3232821, “1,2-benzisothiazol-3-one derivatives as a novel class of small-molecule caspase-3 inhibitors” (Bioorg Med Chem, 2014)
Active and inactive are the calls of the source. The calls are words filed in the database; no cut-off is given here.

Columns and labels:
[1] = biological target: T1, Caspase-7 (Homo sapiens, UniProt P55210); assay: Inhibition of human recombinant caspase-7 using Ac-DEVD-AMC as substrate after 10 mins by fluorescence assay
T1 sequence (P55210 whole entry): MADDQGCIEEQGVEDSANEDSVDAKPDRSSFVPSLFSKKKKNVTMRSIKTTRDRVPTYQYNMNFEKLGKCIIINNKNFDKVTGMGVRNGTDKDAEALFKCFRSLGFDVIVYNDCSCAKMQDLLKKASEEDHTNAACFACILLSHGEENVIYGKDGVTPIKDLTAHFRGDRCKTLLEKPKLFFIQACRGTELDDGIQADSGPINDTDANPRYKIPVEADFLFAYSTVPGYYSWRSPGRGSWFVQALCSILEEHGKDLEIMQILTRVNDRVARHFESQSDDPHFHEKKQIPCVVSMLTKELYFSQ

[2] = biological target: T2, Caspase-3 (Homo sapiens, UniProt P42574); assay: Inhibition of human recombinant caspase-3 using […] as substrate after 10 mins by fluorescence assay
T2 sequence (P42574 whole entry): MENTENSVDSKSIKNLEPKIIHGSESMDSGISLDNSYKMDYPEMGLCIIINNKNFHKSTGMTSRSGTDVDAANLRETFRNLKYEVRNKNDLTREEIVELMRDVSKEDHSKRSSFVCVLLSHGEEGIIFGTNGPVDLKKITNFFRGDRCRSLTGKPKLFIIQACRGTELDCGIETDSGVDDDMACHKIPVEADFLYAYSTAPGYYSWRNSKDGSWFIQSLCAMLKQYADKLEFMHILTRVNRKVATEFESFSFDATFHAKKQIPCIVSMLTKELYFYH

[3] = Solubility of the compound in water; format: physicochemical; conditions: buffer
[4] = test system: Jurkat; assay: Antiapoptotic activity in human Jurkat T cells assessed as protection against camptothecin-induced apoptosis at 50 uM treated 2 hrs before camptothecin addition measured after 4 hrs using annexin V-FITC and 7-AAD staining by flow cytometry; format: functional, cell-based

Row | IC50 [1] | IC50 [2] | solubility [3] | SMILES | Activity [4]
1 | 137 µM |  |  | O=c1[nH]sc2ccccc12 | 
2 | 100 µM |  |  | O=C(Cn1sc2ccccc2c1=O)Nc1ccc(N2CCOCC2)cc1 | 
3 | 0.909 µM | 0.00115 µM | Insoluble | O=C(Nc1ccc(N2CCOCC2)cc1)n1sc2ccccc2c1=O | 
4 | 248 µM |  | soluble | O=C(NCc1ccc(N2CCOCC2)cc1)n1sc2ccccc2c1=O | Active
